Test results published in paper PMC8386105, “A mechanism-inspired UDP-N-acetylglucosamine pyrophosphorylase inhibitor” (RSC Chemical Biology, 2020).

Tests used:
[1] = biological target: T1, UDP-N-acetylglucosamine pyrophosphorylase (AfUAP1) (Aspergillus fumigatus, UniProt Q4WAR0); assay: HPAEC assay of UDP-GlcNAc formation by recombinant enzyme; type: biochemical
T1 construct: gene AFUA_7G02180
T1 sequence (Q4WAR0 1-509): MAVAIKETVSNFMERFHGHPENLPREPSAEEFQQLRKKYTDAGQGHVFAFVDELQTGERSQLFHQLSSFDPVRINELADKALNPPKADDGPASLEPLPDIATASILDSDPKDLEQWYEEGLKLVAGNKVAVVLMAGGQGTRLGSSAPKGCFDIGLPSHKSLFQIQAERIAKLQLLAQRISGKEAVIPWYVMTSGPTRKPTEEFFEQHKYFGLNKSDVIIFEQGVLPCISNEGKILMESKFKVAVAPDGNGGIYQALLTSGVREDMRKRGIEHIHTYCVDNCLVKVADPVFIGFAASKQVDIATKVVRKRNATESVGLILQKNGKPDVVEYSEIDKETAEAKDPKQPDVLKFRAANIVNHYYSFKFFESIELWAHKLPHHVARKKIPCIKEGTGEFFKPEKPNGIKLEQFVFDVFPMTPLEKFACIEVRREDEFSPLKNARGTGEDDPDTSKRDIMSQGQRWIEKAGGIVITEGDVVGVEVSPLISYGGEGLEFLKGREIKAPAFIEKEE

[2] = biological target: T1, UDP-N-acetylglucosamine pyrophosphorylase (AfUAP1)

Row | SMILES | IC50 [1] [µM] | X-ray crystal structure, 1.75 Å (PPi and Mg2+ soak) [2]
1 | O=c1ccn([C@@H]2O[C@H](COP(=O)(O)CP(=O)(O)OP(=O)(O)O)[C@@H](O)[C@H]2O)c(=O)[nH]1 [compound 5, meUTP] | 115 ± 40 | –
2 | O=P(O)(O)OP(=O)(O)O [pyrophosphate] | – | is tethered by interactions with positively charged residues, such as Arg141, Lys437 and Lys148
